Test results taken from patent US5246989A, “Photochromic compound, composition and use thereof” (priority 1990, dated 1993).

Assay: Photochromic characteristics of cast polymethyl methacrylate film (coloration under mercury lamp, fading)
Format: physicochemical
Details: PMMA film, 1.0×10^-4 mol/g, 0.1 mm, 35° C.; for t1/2 (half-value period of absorbance after irradiation): after 60 seconds' irradiation; for λ max (maximum absorption wavelength of the colored film) / ε (60 seconds)-ε (0 second): mercury lamp 60 seconds; for ε (60 seconds)-ε (0 second): absorbance at λmax
Method: The compound synthesized in Example 1, which was represented by the following formula: [drawing 286] was dissolved and dispersed in polymethyl methacrylate with the aid of benzene, and a cast film was prepared on a slide glass sheet (11.2 cm×3.7 cm) so that the concentration of the compound in the film was 1.0×10^-4 mol/g and the thickness of the film was 0.1 mm. The photochromic film was irradiated with rays of a mercury lamp (SHL-100 supplied by Toshiba) located 10 cm apart from the film at 35° C.+1° C. for 60 seconds to effect coloration in the film, and the photochromic characteristics were examined with respect to items described below.
Maximum absorption wavelength (λmax):
The maximum absorption wavelength λmax of the colored film was determined by using a spectrophotometer (220 A supplied by Hitachi).
After 60 seconds' irradiation under the above-mentioned conditions, the absorbance at the maximum absorption wavelength was measured.
The absorbance at the maximum absorption wavelength of the unirradiated film was measured. Half-value period t^1/2 :
After 60 seconds' irradiation, the time required for reduction of the absorbance of the film to 1/2 of [ε(60 seconds)-ε(0 second)] was measured.

Row | Structure (SMILES) | t1/2 (half-value period of absorbance after irradiation) [s] | λ max (maximum absorption wavelength of the colored film) | ε (60 seconds)-ε (0 second)
1 | CCC1(CC)c2cc(O)cnc2N(C)C12C=Nc1ccc3ncccc3c1O2 (centres unmarked) [Compound 5] | 16 | 598 | 1.7
2 | CN1c2ccccc2C(C)(C)C12C=Nc1ccc3cnccc3c1O2 (centres unmarked) [Compound 53] | 16 | 615 | 1.7
3 | CCC1(CC)c2cc(C(F)(F)F)ccc2N(Cc2ccccc2)C12C=Nc1cc(Cc3ccccc3)c3c(C)cncc3c1O2 (centres unmarked) [Compound 30] | 18 | 589 | 1.6
4 | CCCCN1c2cc(CC)ccc2C2(CC3CCC2C3)C12C=Nc1c(N)cc3occc3c1O2 (centres unmarked) [Compound 23] | 19 | 605 | 1.2
5 | CN1c2c(F)cc(F)cc2C(C)(C)C12C=Nc1ccc3cnccc3c1O2 (centres unmarked) [Compound 54] | 14 | 609 | 1.5
6 | COC(=O)c1ccc2c(c1)C(C)(C)C1(C=Nc3ccc4ncccc4c3O1)N2C (centres unmarked) [Compound 52] | 18 | 611 | 1.5
7 | CC1(C)c2cc3cc(-c4ccsc4)oc3cc2N(CCC#N)C12C=Nc1c(N)cc3ncccc3c1O2 (centres unmarked) [Compound 50] |  | 605 | 1.5
8 | CN1c2occ(C#N)c2C(C)(C)C12C=Nc1cc(Cc3ccccc3)c3ncc(Br)cc3c1O2 (centres unmarked) [Compound 48] | 18 | 610 | 1.4
9 | COC(=O)CCCCN1c2cc3[nH]ccc3cc2C2(CC3CCC2C3)C12C=Nc1cc(-c3ccccc3)c3ncccc3c1O2 (centres unmarked) [Compound 13] | 18 | 607 | 1.4
10 | CCC1(CC)c2ccc(N(C)C)cc2N(CCc2ccccc2)C12C=Nc1c(Cl)cc3cc(OC)ncc3c1O2 (centres unmarked) [Compound 32] | 19 | 590 | 1.7
11 | CN1c2ccccc2C2(CCCCC2)C12C=Nc1cc(Cc3ccccc3)c3ccccc3c1O2 (centres unmarked) [Compound 25] | 18 | 611 | 1.4
12 | N#CCN1c2[nH]ccc2C2(CCCCCC2)C12C=Nc1cc(C#N)c3ccccc3c1O2 (centres unmarked) [Compound 17] | 18 | 606 | 1.4
13 | COc1cc2c(c3ccccc13)OC1(C=N2)N(c2ccccc2)c2ccccc2C12CCCC2 (centres unmarked) [Compound 16] | 17 | 606 | 1.2
14 | COC(=O)c1cc2ncccc2c2c1N=CC1(O2)N(C)c2c(cc(C(F)(F)F)c(C(F)(F)F)c2C(F)(F)F)C1(C)C (centres unmarked) [Compound 51] | 18 | 609 | 1.4
15 | Cc1cc2ccncc2c2c1N=CC1(O2)N(C(C)C)c2ccc(Cl)cc2C1(C)C (centres unmarked) [Compound 55] | 13 | 590 | 1.6
16 | COC(=O)CN1c2cc3ccc([N+](=O)[O-])cc3cc2C2(CC3CCC2C3)C12C=Nc1c(C(F)(F)F)cc3ncccc3c1O2 (centres unmarked) [Compound 14] | 16 | 606 | 1.4
17 | COC(=O)CN1c2ccc(N(C)C)cc2C2(CCCCC2)C12C=Nc1cc(Br)c3ccccc3c1O2 (centres unmarked) [Compound 11] | 17 | 607 | 1.3
18 | CN(C)c1cc2c(c3cc4cc[nH]c4cc13)OC1(C=N2)N(C)c2ncc(Cc3ccccc3)cc2C1(C)C (centres unmarked) [Compound 47] | 17 | 601 | 1.4
19 | COC(=O)c1cc2c(c3cc[nH]c13)OC1(C=N2)N(C)c2[nH]ccc2C12CCCCC2 (centres unmarked) [Compound 20] | 17 | 603 | 1.4
20 | CCC1(C)c2cc(OC)ccc2N(Cc2ccccc2)C12C=Nc1cc(-c3ccccc3)c3c(OC)nccc3c1O2 (centres unmarked) [Compound 31] | 17 | 619 | 1.7
21 | N#Cc1cnc2ccc3c(c2c1)OC1(C=N3)N(CCc2ccccc2)c2ccccc2C12CCCCC2 (centres unmarked) [Compound 7] | 18 | 601 | 1.8

Second part, the compound after the results:

Row | t1/2 (half-value period of absorbance after irradiation) [s] | λ max (maximum absorption wavelength of the colored film) | ε (60 seconds)-ε (0 second) | Structure (SMILES)
22 | 17 | 607 | 1.2 | COc1ccc2c(c1)C1(CCCCC1)C1(C=Nc3ccc4cc5[nH]ccc5cc4c3O1)N2C (centres unmarked) [Compound 19]
23 | 17 | 619 | 1.8 | CN1c2ccccc2C2(CCCCC2)C12C=Nc1ccc3cnccc3c1O2 (centres unmarked) [Compound 26]
24 | 19 | 600 | 1.5 | CN1c2cc(N3CCCC3)ccc2C(C)(C)C12C=Nc1c(C(F)(F)F)cc3ncccc3c1O2 (centres unmarked) [Compound 49]
25 | 18 | 603 | 1.4 | CN1c2cc3occc3cc2C2(CC3CCC2C3)C12C=Nc1ccc3ccccc3c1O2 (centres unmarked) [Compound 8]
26 | 14 | 595 | 1.7 | Cc1cc2ccncc2c2c1N=CC1(O2)N(C(C)C)c2ccc(Cl)cc2C12CCCC2 (centres unmarked) [Compound 28]
27 | 18 | 609 | 1.2 | COC(=O)CN1c2cc(Cl)ccc2C2(C3CC4CC(C3)CC2C4)C12C=Nc1ccc3cc4ccc(Br)cc4cc3c1O2 (centres unmarked) [Compound 24]
28 | 16 | 602 | 1.6 | Cc1cc2c(c3ccnc(C)c13)OC1(C=N2)N(C(C)C)c2cc(Br)ccc2C12CCCCCC2 (centres unmarked) [Compound 29]
29 | 18 | 603 | 1.3 | CN(C)c1cc2c(c3ccccc13)OC1(C=N2)N(C)c2ccccc2C12CC1CCC2C1 (centres unmarked) [Compound 3]
30 | 18 | 610 | 1.2 | CN1c2ccc([N+](=O)[O-])cc2C2(CCCCC2)C12C=Nc1ccc3ccccc3c1O2 (centres unmarked) [Compound 21]
31 | 15 | 613 | 1.7 | CN1c2c(F)cc(F)cc2C2(CCCCC2)C12C=Nc1ccc3cnccc3c1O2 (centres unmarked) [Compound 27]
32 | 18 | 603 | 1.4 | CN1c2ccccc2C2(CC3CCC2C3)C12C=Nc1ccc3cccnc3c1O2 (centres unmarked) [Compound 2]
33 | 18 | 605 | 1.4 | CCCN1c2ccc(C(F)(F)F)cc2C2(C3CC4CC(C3)CC2C4)C12C=Nc1ccc3ccccc3c1O2 (centres unmarked) [Compound 4]
34 | 17 | 605 | 1.2 | CN1c2ccc(Cl)cc2C2(C3CC4CC(C3)CC2C4)C12C=Nc1cc(N3CCCCC3)c3ncccc3c1O2 (centres unmarked) [Compound 9]
35 | 16 | 607 | 1.3 | CN1c2cc3ncc(-c4ccsc4)cc3cc2C2(C3CC4CC(C3)CC2C4)C12C=Nc1ccc3ccccc3c1O2 (centres unmarked) [Compound 15]
